The source of these data is US10538555B2, “Macrocyclic inhibitors of the PD-1/PD-L1 and CD80(B7-1)/PD-L1 protein/protein interactions” (BRISTOL-MYERS SQUIBB COMPANY, priority 2014, dated 2020).

*1 amine or outer side, *2 acyl side, *3 side chain or, on linkers, in order; H or OH if unused. Where a SMILES comes first, the peptide text is derived from it. Bridges are numbered along the chain shown (N, C = ends). [ ]: non-standard residue; d: D form. ξ: configuration not given here. Trp(1-CH2COOH) = N[C@@H](Cc1cn(CC(=O)O)c2ccccc12)C(=O)O; Phe(3,4,5-F3) = N[C@@H](Cc1cc(F)c(F)c(F)c1)C(=O)O; NMePhe(4-F) = CN[C@@H](Cc1ccc(F)cc1)C(=O)O; Phe(4-F) = N[C@@H](Cc1ccc(F)cc1)C(=O)O; 1Nal = N[C@@H](Cc1cccc2ccccc12)C(=O)O; d(cisHyp) = O=C(O)[C@H]1C[C@@H](O)CN1; Bta = N[C@@H](Cc1csc2ccccc12)C(=O)O; Hyp = O=C(O)[C@@H]1C[C@@H](O)CN1; NMeF = CN[C@@H](Cc1ccccc1)C(=O)O; X1 = O=C([C@H]1COCCN1[*:1])[*:2]; dHyp = O=C(O)[C@H]1C[C@H](O)CN1; NMeL = CN[C@@H](CC(C)C)C(=O)O; NMeNle = CCCC[C@H](NC)C(=O)O; Pip = O=C(O)[C@@H]1CCCCN1; dPip = O=C(O)[C@H]1CCCCN1; hSer = N[C@@H](CCO)C(=O)O; NMeA = CN[C@@H](C)C(=O)O; Orn = NCCC[C@H](N)C(=O)O; dNMeA = CN[C@H](C)C(=O)O; Dab = NCC[C@H](N)C(=O)O; Dap = NC[C@H](N)C(=O)O; ξC = NC(CS)C(=O)O

T1 sequence (Q9NZQ7 with tags, fused parts or gaps): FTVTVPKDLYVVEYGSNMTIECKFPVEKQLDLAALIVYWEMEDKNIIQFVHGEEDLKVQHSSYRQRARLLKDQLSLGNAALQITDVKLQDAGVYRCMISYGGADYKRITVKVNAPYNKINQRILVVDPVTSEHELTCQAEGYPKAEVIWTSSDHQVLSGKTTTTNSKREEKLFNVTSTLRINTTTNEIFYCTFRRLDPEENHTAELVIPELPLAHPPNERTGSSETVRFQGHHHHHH

The assay addresses T1, Human PD-L1/PD-1 (Homo sapiens, UniProt Q9NZQ7).
T1 construct: TVMV protease cleavage site (C); made in house; host or cells: HEK293T cells
Kind of assay: HTRF Human PD-L1/PD-1 binding assay (PD-1-Ig/PD-L1-His). The note with it: PD-L1-His 10 nM, PD-1-Ig 20 nM; class symbol; read-out: HTRF Human PD-L1/PD-1 Binding Assay IC50 Range. A digest of the protocol: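 Competition of macrocyclic peptides for PD-1/PD-L1 binding measured by HTRF in dPBS containing 0.1% BSA and 0.05% Tween-20. Compound and PD-L1-His (10 nM final) incubated 15 min before PD-1-Ig (20 nM final) and a further 15 min.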
Take `CCCC[C@H]1C(=O)N2CCC[C@@H]2C(=O)N[C@@H](CC(=O)O)C(=O)N[C@@H](C(C)C)C(=O)N(C)[C@@H](Cc2ccccc2)C(=O)N[C@@H](CC(=O)O)C(=O)N2CCC[C@@H]2C(=O)N[C@@H](Cc2c[nH]c3ccccc23)C(=O)N[C@@H](Cc2ccc(O)cc2)C(=O)N[C@@H](CC(C)C)C(=O)N[C@H](C(=O)NCC(N)=O)CSCC(=O)N[C@@H](Cc2ccc(F)cc2)C(=O)N(C)[C@@H](Cc2ccccc2)C(=O)N1C` [Example 10106] ({CH2CO}-[Phe(4-F)][NMeF][NMeNle][dP]DV[NMeF]D[dP]WYLCG-NH2; thioether N-13): the IC50 fell in the range of 1 to 9.9 nM.
In the case of `CCCC[C@H]1C(=O)N(C)[C@@H](CCCC)C(=O)N[C@@H](CCCNC(=N)N)C(=O)NC(C(=O)NCC(N)=O)CSCC(=O)N[C@@H](Cc2ccc(O)cc2)C(=O)N(C)[C@@H](C)C(=O)N[C@@H](CC(N)=O)C(=O)N2CCC[C@H]2C(=O)N[C@@H](CO)C(=O)N[C@@H](CCO)C(=O)N2C[C@H](O)C[C@H]2C(=O)N[C@@H](Cc2c[nH]c3ccccc23)C(=O)N[C@@H](CCO)C(=O)N[C@@H](Cc2csc3ccccc23)C(=O)N1C` (stereo partly drawn) [Example 10050] ({CH2CO}-Y[NMeA]NPS[hSer][Hyp]W[hSer][Bta][NMeNle][NMeNle]R[ξC]G-NH2; thioether N-14), the IC50 was 1 to 9.9 nM.
With `CCCC[C@H]1C(=O)N(C)[C@@H](CCCC)C(=O)N[C@@H](C)C(=O)N[C@H](C(=O)NCC(N)=O)CSCC(=O)N[C@@H](Cc2ccc(O)cc2)C(=O)N(C)[C@@H](C)C(=O)N[C@@H](CC(N)=O)C(=O)N2CCC[C@H]2C(=O)N[C@@H](Cc2cnc[nH]2)C(=O)N[C@@H](CCN)C(=O)N2C[C@H](O)C[C@H]2C(=O)N[C@@H](Cc2c[nH]c3ccccc23)C(=O)N[C@@H](CO)C(=O)N[C@@H](Cc2c[nH]c3ccccc23)C(=O)N1C` [Example 1245], the IC50 was in the range of 10 to 99.9 nM.
As to `CCCC[C@H]1C(=O)N(C)[C@@H](CCCC)C(=O)N[C@@H](CCCNC(=N)N)C(=O)NC(C(=O)NCC(N)=O)CSCC(=O)N[C@@H](Cc2ccc(O)cc2)C(=O)N(C)[C@@H](C)C(=O)N[C@@H](CC(N)=O)C(=O)N2CCC[C@H]2C(=O)N[C@@H](CC(N)=O)C(=O)N[C@@H](CC(C)C)C(=O)N2C[C@H](O)C[C@H]2C(=O)N[C@@H](Cc2c[nH]c3ccccc23)C(=O)N[C@@H](CCO)C(=O)N[C@@H](Cc2csc3ccccc23)C(=O)N1C` (stereo partly drawn) [Example 9131] ({CH2CO}-Y[NMeA]NPNL[Hyp]W[hSer][Bta][NMeNle][NMeNle]R[ξC]G-NH2; thioether N-14), the IC50 was in the range of 1 to 9.9 nM.
For `CCCC[C@H]1C(=O)N(C)[C@@H](CCCC)C(=O)N[C@@H](CCC(=O)O)C(=O)N[C@H](C(=O)NCC(N)=O)CSCC(=O)N[C@@H](Cc2ccc(O)cc2)C(=O)N(C)[C@@H](C)C(=O)N[C@@H](CC(=O)O)C(=O)N2CCC[C@H]2C(=O)N[C@@H](CN)C(=O)N[C@@H](CCC(=O)O)C(=O)N2C[C@H](O)C[C@H]2C(=O)N[C@@H](Cc2c[nH]c3ccccc23)C(=O)N[C@@H](CO)C(=O)N[C@@H](Cc2c[nH]c3ccccc23)C(=O)N1C` [Example 5170] ({CH2CO}-Y[NMeA]DP[Dap]E[Hyp]WSW[NMeNle][NMeNle]ECG-NH2; thioether N-14) the value was 1 to 9.9 nM.
Next, `CCCC[C@H]1C(=O)N2C[C@H](O)C[C@@H]2C(=O)N[C@@H](CC(=O)O)C(=O)N[C@@H](C(C)C)C(=O)N(C)[C@@H](Cc2ccccc2)C(=O)N[C@@H](CC(=O)O)C(=O)N2CCOC[C@@H]2C(=O)N[C@@H](Cc2c[nH]c3ccccc23)C(=O)N[C@@H](Cc2ccc(O)cc2)C(=O)N[C@@H](CCOC)C(=O)N[C@H](C(=O)NCC(N)=O)CSCC(=O)N[C@@H](Cc2cc(F)c(F)c(F)c2)C(=O)N(C)[C@@H](Cc2ccccc2)C(=O)N1C` [Example 10161] ({CH2CO}-[Phe(3,4,5-F3)][NMeF][NMeNle][d(cisHyp)]DV[NMeF]D[X1]WY[hSer](Me)CG-NH2; thioether N-13): 1 to 9.9 nM; `CCCC[C@H]1C(=O)N(C)[C@@H](CCCC)C(=O)N[C@@H](C)C(=O)N[C@H](C(=O)NCC(N)=O)CSCC(=O)N[C@@H](Cc2ccc(O)cc2)C(=O)N(C)[C@@H](C)C(=O)N[C@@H](CC(N)=O)C(=O)N2CCC[C@H]2C(=O)N[C@@H](Cc2cnc[nH]2)C(=O)N[C@@H](CCC(N)=O)C(=O)N2C[C@H](O)C[C@H]2C(=O)N[C@@H](Cc2c[nH]c3ccccc23)C(=O)N[C@@H](CO)C(=O)N[C@@H](Cc2cccc3ccccc23)C(=O)N1C` [Example 1289] ({CH2CO}-Y[NMeA]NPHQ[Hyp]WS[1Nal][NMeNle][NMeNle]ACG-NH2; thioether N-14): 1 to 9.9 nM.
As to `CCCC[C@H]1C(=O)N2CCC[C@@H]2C(=O)N[C@@H](CC(=O)O)C(=O)N[C@@H](C(C)C)C(=O)N(C)[C@@H](CC(C)C)C(=O)N[C@@H](Cc2ccc(O)cc2)C(=O)N2CCC[C@@H]2C(=O)N[C@@H](Cc2c[nH]c3ccccc23)C(=O)N[C@@H](Cc2ccc(O)cc2)C(=O)N[C@@H](CC(C)C)C(=O)N[C@H](C(=O)NCC(N)=O)CSCC(=O)N[C@@H](Cc2ccc(F)cc2)C(=O)N(C)[C@@H](Cc2ccccc2)C(=O)N1C` [Example 9249] ({CH2CO}-[Phe(4-F)][NMeF][NMeNle][dP]DV[NMeL]Y[dP]WYLCG-NH2; thioether N-13), the IC50 fell in the range of 100 to 990 nM.
As for `CCCC[C@H]1C(=O)N2CCC[C@@H]2C(=O)N[C@@H](CC(=O)O)C(=O)N[C@@H](C(C)C)C(=O)N(C)[C@@H](Cc2ccccc2)C(=O)N[C@@H](CCC(=O)O)C(=O)N2C[C@@H](O)C[C@@H]2C(=O)N[C@@H](Cc2c[nH]c3ccccc23)C(=O)N[C@@H](Cc2ccc(O)cc2)C(=O)N[C@@H](CC(C)C)C(=O)N[C@H](C(=O)NCC(N)=O)CSCC(=O)N[C@@H](Cc2cc(F)c(F)c(F)c2)C(=O)N(C)[C@@H](Cc2ccccc2)C(=O)N1C` [Example 9285] ({CH2CO}-[Phe(3,4,5-F3)][NMeF][NMeNle][dP]DV[NMeF]E[dHyp]WYLCG-NH2; thioether N-13), the IC50 is 1 to 9.9 nM.
Regarding `CCCC[C@H]1C(=O)N[C@@H](CC(N)=O)C(=O)N2CCC[C@H]2CN[C@@H](CO)C(=O)N[C@@H](CCO)C(=O)N2CCC[C@H]2C(=O)N[C@@H](Cc2c[nH]c3ccccc23)C(=O)N[C@@H](CN)C(=O)N[C@@H](Cc2c[nH]c3ccccc23)C(=O)N(C)[C@@H](C)C(=O)N(C)[C@@H](C)C(=O)N[C@@H](CCCNC(=N)N)C(=O)NC(C(=O)NCC(N)=O)CSCC(=O)N[C@@H](Cc2ccc(O)cc2)C(=O)N1C` (stereo partly drawn) [Example 10196], the IC50 lay within 1000 to 10000 nM.
`CCCC[C@H]1C(=O)N(C)[C@@H](CCCC)C(=O)N[C@@H](CC(C)C)C(=O)N[C@H](C(=O)NCC(N)=O)CSCC(=O)N[C@@H](Cc2ccc(O)cc2)C(=O)N2CCCC[C@H]2C(=O)N[C@@H](CC(N)=O)C(=O)N2CCC[C@H]2C(=O)N[C@@H](CO)C(=O)N[C@@H](CCC(N)=O)C(=O)N2C[C@H](O)C[C@H]2C(=O)N[C@@H](Cc2c[nH]c3ccccc23)C(=O)N[C@@H](CO)C(=O)N[C@@H](Cc2cn(CC(=O)O)c3ccccc23)C(=O)N1C` [Example 1304] ({CH2CO}-Y[Pip]NPSQ[Hyp]WS[Trp(1-CH2COOH)][NMeNle][NMeNle]LCG-NH2; thioether N-14): the IC50 lay within 10 to 99.9 nM.
Take `CCCC[C@H]1C(=O)N(C)[C@@H](CCCC)C(=O)N[C@@H](CCC(=O)O)C(=O)N[C@H](C(=O)NCC(N)=O)CSCC(=O)N[C@@H](Cc2ccc(O)cc2)C(=O)N(C)[C@@H](C)C(=O)N[C@@H](CC(N)=O)C(=O)N2CCC[C@H]2C(=O)N[C@@H](Cc2cnc[nH]2)C(=O)N[C@@H](CCC(N)=O)C(=O)N2C[C@H](O)C[C@H]2C(=O)N[C@@H](Cc2c[nH]c3ccccc23)C(=O)N[C@@H](CCCCN)C(=O)N[C@@H](Cc2cn(CC(=O)O)c3ccccc23)C(=O)N1C` [Example 6324] ({CH2CO}-Y[NMeA]NPHQ[Hyp]WK[Trp(1-CH2COOH)][NMeNle][NMeNle]ECG-NH2; thioether N-14): the IC50 was in the range of 1 to 9.9 nM.
On to `CCCC[C@H]1C(=O)N2CCC[C@@H]2C(=O)N[C@@H](CO)C(=O)N[C@@H](C(C)C)C(=O)N(C)[C@@H](Cc2ccccc2)C(=O)N[C@@H](CCC(=O)O)C(=O)N2CCCC[C@@H]2C(=O)N[C@@H](Cc2c[nH]c3ccccc23)C(=O)N[C@@H](Cc2ccc(O)cc2)C(=O)N[C@@H](CC(C)C)C(=O)N[C@H](C(=O)NCC(N)=O)CSCC(=O)N[C@@H](Cc2cc(F)c(F)c(F)c2)C(=O)N(C)[C@@H](Cc2ccc(F)cc2)C(=O)N1C` [Example 10587] ({CH2CO}-[Phe(3,4,5-F3)][NMePhe(4-F)][NMeNle][dP]SV[NMeF]E[dPip]WYLCG-NH2; thioether N-13), for which the IC50 lay in the range of 1 to 9.9 nM.
On to `CC(C)[C@@H]1NC(=O)[C@H](CCC(=O)O)NC(=O)[C@@H](C)N(C)C(=O)[C@H](C)N(C)C(=O)[C@H](Cc2ccccc2)N(C)C(=O)[C@H](Cc2cc(F)c(F)c(F)c2)NC(=O)CSC[C@@H](C(=O)NCC(N)=O)NC(=O)[C@H](CCCN)NC(=O)[C@H](Cc2ccc(O)cc2)NC(=O)[C@H](Cc2c[nH]c3ccccc23)NC(=O)[C@@H](C)N(C)C(=O)[C@H](Cc2ccc(O)cc2)NC(=O)[C@H](Cc2ccccc2)N(C)C1=O` [Example 9194] ({CH2CO}-[Phe(3,4,5-F3)][NMeF][NMeA][dNMeA]EV[NMeF]Y[dNMeA]WY[Orn]CG-NH2; thioether N-13), for which the IC50 lay in the range of 1 to 9.9 nM.
In the case of `CCCC[C@H]1C(=O)N(C)[C@@H](CCCC)C(=O)N[C@@H](CCN)C(=O)NC(C(=O)NCC(N)=O)CSCC(=O)N[C@@H](Cc2ccc(O)cc2)C(=O)N(C)[C@@H](C)C(=O)N[C@@H](CC(N)=O)C(=O)N2CCC[C@H]2C(=O)N[C@@H](CC(N)=O)C(=O)N[C@@H](CC(C)C)C(=O)N2CCC[C@H]2C(=O)N[C@@H](Cc2csc3ccccc23)C(=O)N[C@@H](CO)C(=O)N[C@@H](Cc2c[nH]c3ccccc23)C(=O)N1C` (stereo partly drawn) [Example 9163] ({CH2CO}-Y[NMeA]NPNLP[Bta]SW[NMeNle][NMeNle][Dab][ξC]G-NH2; thioether N-14), the IC50 lay in the range of 1 to 9.9 nM.
